Consider 22 compounds from ChEMBL document CHEMBL3734688, “Synthesis and evaluation of 6-methylcoumarin derivatives as potent and selective monoamine oxidase B inhibitors” (Medchemcomm, 2015).

Data set [1] addresses T1, Amine oxidase [flavin-containing] B (Homo sapiens, UniProt P27338).
T1 sequence (P27338 whole entry): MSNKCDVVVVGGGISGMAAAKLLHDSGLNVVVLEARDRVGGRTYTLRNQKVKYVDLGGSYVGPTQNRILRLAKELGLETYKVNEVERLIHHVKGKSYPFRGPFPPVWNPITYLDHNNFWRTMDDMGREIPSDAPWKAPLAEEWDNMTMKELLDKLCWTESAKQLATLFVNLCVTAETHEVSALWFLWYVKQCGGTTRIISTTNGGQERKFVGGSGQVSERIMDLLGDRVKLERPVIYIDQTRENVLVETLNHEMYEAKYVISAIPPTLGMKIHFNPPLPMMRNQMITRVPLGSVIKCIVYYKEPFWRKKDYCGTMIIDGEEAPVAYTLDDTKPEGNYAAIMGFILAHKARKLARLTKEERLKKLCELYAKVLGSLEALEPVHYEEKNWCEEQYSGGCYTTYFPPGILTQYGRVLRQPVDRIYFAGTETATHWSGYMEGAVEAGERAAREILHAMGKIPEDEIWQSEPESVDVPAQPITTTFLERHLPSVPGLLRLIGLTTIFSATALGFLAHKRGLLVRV
In words: Inhibition of recombinant human MAO-B using p-tyramine as substrate preincubated for 15 mins followed by substrate addition by Amplex Red probe-based fluorometric analysis.

The species entered for a further data set is Homo sapiens. Put plainly: Selectivity index, ratio of IC50 for recombinant human MAO-A to IC50 for recombinant human MAO-B.
Data set [2] has as its target T2, Amine oxidase [flavin-containing] A (Homo sapiens, UniProt P21397).
T2 sequence (P21397 whole entry): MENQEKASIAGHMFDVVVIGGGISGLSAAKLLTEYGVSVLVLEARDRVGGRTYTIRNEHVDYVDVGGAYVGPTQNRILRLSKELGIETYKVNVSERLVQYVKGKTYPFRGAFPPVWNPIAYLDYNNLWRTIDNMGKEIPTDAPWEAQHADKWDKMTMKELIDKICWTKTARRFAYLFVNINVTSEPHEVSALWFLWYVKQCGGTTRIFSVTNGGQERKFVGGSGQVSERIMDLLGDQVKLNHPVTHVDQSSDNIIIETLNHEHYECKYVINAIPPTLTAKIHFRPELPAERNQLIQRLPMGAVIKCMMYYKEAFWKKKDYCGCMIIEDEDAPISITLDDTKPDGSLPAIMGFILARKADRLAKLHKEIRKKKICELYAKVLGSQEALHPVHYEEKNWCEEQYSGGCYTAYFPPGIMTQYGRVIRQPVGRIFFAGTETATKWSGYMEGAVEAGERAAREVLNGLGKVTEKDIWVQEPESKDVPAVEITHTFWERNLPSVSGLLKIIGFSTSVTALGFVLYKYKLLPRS
Put plainly: Inhibition of recombinant human MAO-A using p-tyramine as substrate at 100 uM preincubated for 15 mins followed by substrate addition by Amplex Red probe-based fluorometric analysis.

For data set [3], the target named is T2, Amine oxidase [flavin-containing] A. Put plainly: Inhibition of recombinant human MAO-A using p-tyramine as substrate preincubated for 15 mins followed by substrate addition by Amplex Red probe-based fluorometric analysis.
A further data set deals with SH-SY5Y. Put plainly: Neurotoxicity in human SH-SY5Y cells assessed as cell viability at 2.5 to 20 uM after 48 hrs by MTT assay. The class given is toxicity, cell-based.
Another data set relates to HUVEC. Put plainly: Toxicity in HUVEC assessed as cell viability at 2.5 to 20 uM after 48 hrs by MTT assay. As to conditions: human; call rule not given here. The class given is cell-based. Background: Tetrazolium dyes change colour on reduction, which living cells bring about.
Data set [4] can be described thus: Neurotoxicity in rat PC12 cells assessed as cell viability at 2.5 to 20 uM after 48 hrs by MTT assay. The class given is toxicity, cell-based. As to conditions: pc-12, 48 h.

On to `CC(=O)Oc1ccccc1-c1cc2cc(C)ccc2oc1=O`, for which the IC50 (usually the concentration at which inhibition is half-maximal) in data set [1] came to 938 nM. The Ratio IC50 in the data set listed under Homo sapiens was > 107. Besides, the “inhibition (INH)” value in data set [2] was “Not Active”.

Turning to `Cc1ccc2oc(=O)c(-c3cccc(OCCCCBr)c3)cc2c1`, the IC50 in data set [1] worked out at 10700 nM; in data set [3] it was 40.6 µM. In addition, the Ratio IC50 in the data set filed under Homo sapiens came to 3.79.

In the case of `Cc1ccc2oc(=O)c(-c3cccc(OCCN(C)C)c3)cc2c1`, the IC50 in data set [1] came to 218 nM. In addition, the Ratio IC50 in the data set filed under Homo sapiens is > 459. Besides, in data set [2], the “inhibition (INH)” value is “Not Active”.

In the case of `CC(=O)Oc1ccc(-c2cc3cc(C)ccc3oc2=O)cc1`, in data set [1], the IC50 amounted to 401 nM. Also, the Ratio IC50 in the data set filed under Homo sapiens is > 249. Further, the “inhibition (INH)” value in data set [2] was “Not Active”.

For `Cc1ccc2oc(=O)c(-c3cccc(OC(=O)N(C)C)c3)cc2c1`, the half-maximal inhibitory concentration (IC50) in data set [1] amounted to 4430 nM. The Ratio IC50 in the data set listed under Homo sapiens was > 22.6. For the same compound, the “inhibition (INH)” value in data set [2] was “Not Active”.

On to `Cc1ccc2oc(=O)c(-c3ccc(OCc4ccccc4)cc3)cc2c1`, for which the IC50 in data set [1] was 106 nM. Besides, in the data set filed under Homo sapiens, the Ratio IC50 is > 947. For the same compound, the “inhibition (INH)” value in data set [2] is on record as “Not Active”.

As for `Cc1ccc2oc(=O)c(-c3cccc(OCc4cccc(F)c4)c3)cc2c1`, the IC50 in data set [1] amounted to 60.1 nM. Also, the Activity result (in the data set on SH-SY5Y; in the data set on HUVEC; in data set [4]) was “Non-toxic” each time. Besides, the Ratio IC50 in the data set filed under Homo sapiens is > 1660. In data set [2], the “inhibition (INH)” value was “Not Active”.

For the compound `Cc1ccc2oc(=O)c(-c3cccnc3)cc2c1`, the IC50 in data set [1] worked out at 2580 nM; in data set [3], 6.67 µM. In the data set listed under Homo sapiens, the Ratio IC50 worked out at 2.59.

In the case of `Cc1ccc2oc(=O)c(-c3c[nH]c4ccccc34)cc2c1`, the half-inhibitory concentration (IC50) came to 5670 nM in data set [1] and 43.9 µM in data set [3]. Further, in the data set listed under Homo sapiens, the Ratio IC50 is 7.75.

For `CC(=O)Oc1cccc(-c2cc3cc(C)ccc3oc2=O)c1`, the concentration for half-maximal inhibition (IC50) in data set [1] was 714 nM. Also, the Ratio IC50 in the data set listed under Homo sapiens is > 140. Besides, in data set [2], the “inhibition (INH)” value was “Not Active”.

`Cc1ccc2oc(=O)c(-c3ccccc3OCc3cccc(F)c3)cc2c1`: the IC50 in data set [1] is 253 nM. In addition, the Ratio IC50 in the data set filed under Homo sapiens is > 395. Further, in data set [2], the “inhibition (INH)” value is given as “Not Active”.

Regarding `Cc1ccc2oc(=O)c(-c3ccc(OCc4cccc(F)c4)cc3)cc2c1`, the IC50 in data set [1] was found to be 175 nM. In addition, the Ratio IC50 in the data set filed under Homo sapiens was > 572. The “inhibition (INH)” value in data set [2] was “Not Active”.

With `Cc1ccc2oc(=O)c(-c3cccc(OCCCCN(C)C)c3)cc2c1`, the IC50 in data set [1] is 1130 nM; in data set [3] it was 26.7 µM. Also, the Ratio IC50 in the data set listed under Homo sapiens was found to be 23.6.

Regarding `Cc1ccc2oc(=O)c(-c3cccc4ccccc34)cc2c1`, the IC50 in data set [1] was found to be 6490 nM; in data set [3], 55.5 µM. The Ratio IC50 in the data set filed under Homo sapiens is 8.55.

With `Cc1ccc2oc(=O)c(-c3cccc(OCCBr)c3)cc2c1`, the IC50 in data set [1] was 2450 nM; in data set [3], 20.7 µM. In the data set filed under Homo sapiens, the Ratio IC50 was found to be 8.47.

Regarding `Cc1ccc2oc(=O)c(-c3cccc(OC(=O)c4ccccc4)c3)cc2c1`, the results for the IC50 in data set [1] and in data set [3] were 651 nM and 15.8 µM, respectively. Moreover, in the data set listed under Homo sapiens, the Ratio IC50 amounted to 24.2.

On to `Cc1ccc(S(=O)(=O)Oc2cccc(-c3cc4cc(C)ccc4oc3=O)c2)cc1`, for which the IC50 in data set [1] came to 305 nM. Besides, in the data set listed under Homo sapiens, the Ratio IC50 was > 328. For the same compound, the “inhibition (INH)” value in data set [2] is listed as “Not Active”.

Turning to `Cc1ccc2oc(=O)c(-c3ccccc3OCc3ccccc3)cc2c1`, the IC50 in data set [1] amounted to 256 nM. Besides, the Ratio IC50 in the data set filed under Homo sapiens was > 390. In addition, the “inhibition (INH)” value in data set [2] is recorded as “Not Active”.

Regarding `Cc1ccc2oc(=O)c(-c3cccc(OCCCN(C)C)c3)cc2c1`, the results for the IC50 in data set [1] and in data set [3] were 905 nM and 34.9 µM, respectively. For the same compound, the Ratio IC50 in the data set filed under Homo sapiens was determined as 38.6.

As for `Cc1ccc2oc(=O)c(-c3cccc(OCCCBr)c3)cc2c1`, the half-maximal inhibitory concentration (IC50) stood at 3670 nM in data set [1] and 19.5 µM in data set [3]. For the same compound, in the data set listed under Homo sapiens, the Ratio IC50 came out at 5.3.

On to `Cc1ccc2oc(=O)c(-c3cccc(OCc4ccccc4)c3)cc2c1`, for which, in data set [1], the IC50 amounted to 201 nM. Further, in the data set listed under Homo sapiens, the Ratio IC50 is > 498. The “inhibition (INH)” value in data set [2] is given as “Not Active”.

With `Cc1ccc2oc(=O)c(-c3cccs3)cc2c1`, the IC50 in data set [1] turned out to be 3760 nM; in data set [3] it was 8.09 µM. In the data set filed under Homo sapiens, the Ratio IC50 came to 2.16.
